Reference: patent US20090062251A1, “Novel Compounds 002” (ASTRAZENECA AB, priority 2007, published 2009)

Columns and labels:
[1] = target: T1, Human CB1 receptor (hCB1) (Homo sapiens, UniProt P21554); experiment: hCB1 receptor binding (3H-CP55,940 displacement); conditions: hCB1 membranes, Ki=IC50/(1+[rad]/Kd)
T1 construct: purchased Receptor Biology
Procedure, shortened: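 Human CB1 membranes in Tris buffer pH 7.4 with 2.5 mM EDTA, 5 mM MgCl2 and 0.5 mg/mL fatty-acid-free BSA, incubated 60 min at room temperature with [3H]CP55,940.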

[2] = target: T1, Human CB1 receptor (hCB1); experiment: hCB1 GTPγS binding; type: biochemical; conditions: for EC50: hCB1 membranes, GTPγ35S, 10-point dose-response; for Emax: maximal stimulated binding determined with 10 μM Win 55,212-2
Procedure, shortened: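 Human CB1 membranes in 50 mM Hepes, 100 mM NaCl, 1 mM EDTA, 5 mM MgCl2, 0.1% BSA, pH 7.4 were preincubated 5 min with GDP (30 μM final). Basal and maximal binding were defined without or with 10 μM Win 55,212-2; incubation 60 min RT; filter-bound radioactivity counted. Antagonist reversal used fixed antagonist with agonist curve, or fixed agonist with antagonist curve.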

T1 sequence (P21554 whole entry): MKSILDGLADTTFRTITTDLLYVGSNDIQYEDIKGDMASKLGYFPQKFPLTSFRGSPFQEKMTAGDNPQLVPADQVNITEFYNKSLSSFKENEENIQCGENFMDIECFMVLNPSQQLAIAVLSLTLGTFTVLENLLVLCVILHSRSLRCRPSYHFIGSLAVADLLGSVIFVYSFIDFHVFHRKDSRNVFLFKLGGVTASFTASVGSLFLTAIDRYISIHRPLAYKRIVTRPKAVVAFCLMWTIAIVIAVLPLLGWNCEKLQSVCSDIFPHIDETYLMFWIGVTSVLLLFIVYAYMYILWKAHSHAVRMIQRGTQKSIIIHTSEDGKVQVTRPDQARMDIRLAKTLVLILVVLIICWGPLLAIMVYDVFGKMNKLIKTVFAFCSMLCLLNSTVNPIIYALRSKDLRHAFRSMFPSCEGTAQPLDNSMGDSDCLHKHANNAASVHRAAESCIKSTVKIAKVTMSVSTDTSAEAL

SMILES | Ki [1] | EC50 [2] | Emax [2]
CCNC(=O)CN(CC)C(=O)c1ccc2c(c1)c1c(n2CCF)CCC(C2CCOCC2)C1 (stereo not drawn) [N-ethyl-N-(ethylcarbamoylmethyl)-9-(2-fluoroethyl)-6-(oxan-4-yl)-5,6,7,8-tetrahydrocarbazole-3-carboxamide] | 202 nM | 438 nM | 109%
CCNC(=O)CN(CC)C(=O)c1ccc2c(c1)c1c(n2C)CCC(C2CCOCC2)C1 (stereo not drawn) [N-ethyl-N-(ethylcarbamoylmethyl)-9-methyl-6-(oxan-4-yl)-5,6,7,8-tetrahydrocarbazole-3-carboxamide] | 17.4 nM | 33.1 nM | 121%
CCNC(=O)CN(CC)C(=O)c1ccc2c(c1)c1c(n2C(=O)N(C)C)CCC(C2CCOCC2)C1 (stereo not drawn) [N-ethyl-N-(ethylcarbamoylmethyl)-N′,N′-dimethyl-6-(oxan-4-yl)-5,6,7,8-tetrahydrocarbazole-3,9-dicarboxamide] | > 3480 nM | > 30000 nM | > 42%
CCN(CCCC(=O)NCCF)C(=O)c1ccc2c(c1)c1c(n2C)CCC(C2CCOCC2)C1 (stereo not drawn) [N-ethyl-N-[3-(2-fluoroethylcarbamoyl)propyl]-9-methyl-6-(oxan-4-yl)-5,6,7,8-tetrahydrocarbazole-3-carboxamide] | 10.1 nM | 9.2 nM | 135%
CCN(CC(=O)NC[C@@H](C)O)C(=O)c1ccc2c(c1)c1c(n2C)CCC(C2CCOCC2)C1 (stereo partly drawn) [N-ethyl-N-[[(2R)-2-hydroxypropyl]carbamoylmethyl]-9-methyl-6-(oxan-4-yl)-5,6,7,8-tetrahydrocarbazole-3-carboxamide] | 182 nM | 318 nM | 124%
CCS(=O)(=O)n1c2c(c3cc(C(=O)N4CCC(O)CC4)ccc31)CC(C1CCOCC1)CC2 (stereo not drawn) [[9-ethylsulfonyl-6-(oxan-4-yl)-5,6,7,8-tetrahydrocarbazol-3-yl]-(4-hydroxy-1-piperidyl)methanone] | 155 nM | 352 nM | 107%
